Measurements taken from PubChem BioAssay AID330 (DTP/NCI, 2004).
Several values for one entry are separate records, joined by “and”; a condition that tells them apart may be missing. Identical values can stand only once. Toxic doses and inconclusive results are not listed.

Tested on: P388 leukemia ip, CD2F1 mice, survival T/C
Assay: NCI In Vivo Anticancer Drug Screen. Data for tumor model P388 Leukemia (intraperitoneal) in CD2F1 (CDF1) mice
Settings: endpoint: median survival time, higher = longer survival
How it was run: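 Mice carrying the transplanted tumor received test compound or vehicle. Survival was recorded in each group, and the value is the treated-group measurement divided by that of the vehicle-treated control group.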

[1] = dose: 50.0 mg/kg/injection, schedule: Q01DX009 (ip), vehicle: saline with Tween-80
[2] = dose: 100.0 mg/kg/injection, schedule: Q01DX009 (ip), vehicle: saline with Tween-80
[3] = dose: 200.0 mg/kg/injection, schedule: Q01DX009 (ip), vehicle: saline with Tween-80
[4] = dose: 50.0 mg/kg/injection, schedule: Q01DX009 (ip), vehicle: saline

CCOC(=O)c1ccc(NC(CCC(C#N)(CCC(=NC(C)(C)C)Nc2ccc(C(=O)OCC)cc2)C(=O)OCC)=NC(C)(C)C)cc1 (configuration not stated)
T/C [1]: 95 % of control
T/C [2]: 95 % of control
T/C [3]: 95 % of control

Fc1ccc(NC(=S)SCc2ccccc2)cc1
T/C (dose: 50.0 mg/kg/injection, schedule: Q01DX009 (ip), vehicle: suspension in saline): 101 % of control
T/C (dose: 100.0 mg/kg/injection, schedule: Q01DX009 (ip), vehicle: suspension in saline): 101 % of control
T/C (dose: 200.0 mg/kg/injection, schedule: Q01DX009 (ip), vehicle: suspension in saline): 101 % of control

C=C(CCCCC)C(=O)/C=C/c1ccc(Cl)c(Cl)c1
T/C (dose: 6.25 mg/kg/injection, schedule: Q01DX009 (ip), vehicle: other): 97 % of control
T/C (dose: 12.5 mg/kg/injection, schedule: Q01DX009 (ip), vehicle: other): 107 % of control
T/C (dose: 25.0 mg/kg/injection, schedule: Q01DX009 (ip), vehicle: other): 108 % of control
T/C (dose: 50.0 mg/kg/injection, schedule: Q01DX009 (ip), vehicle: other): 109 % of control

COc1ccc(Cl)c2c1C(=O)C1C(=O)C3C(O)=C(C(=O)NC(C)(C)C)C(=O)C(NC(=O)c4ccccc4)C3CC1C2 (configuration not stated)
T/C (dose: 60.0 mg/kg/injection, schedule: Q01DX005 (ip), vehicle: Klucel (hydroxypropylcellulose) (HPC)): 97 % of control
T/C (dose: 120.0 mg/kg/injection, schedule: Q01DX005 (ip), vehicle: Klucel (hydroxypropylcellulose) (HPC)): 116 % of control
T/C (dose: 240.0 mg/kg/injection, schedule: Q01DX005 (ip), vehicle: Klucel (hydroxypropylcellulose) (HPC)): 190 % of control

CC(C)(CS)C(=O)O
T/C [4]: 103 % of control

NC12CC3CC(CC(C3)C1)C2
T/C (dose: 25.0 mg/kg/injection, schedule: Q01DX005 (ip), vehicle: saline with Tween-80): 97 % of control
T/C (dose: 50.0 mg/kg/injection, schedule: Q01DX005 (ip), vehicle: saline with Tween-80): 92 % of control
T/C (dose: 100.0 mg/kg/injection, schedule: Q01DX005 (ip), vehicle: saline with Tween-80): 88 % of control

CSCCC(NP(=S)(c1ccccc1)c1ccccc1)C(=O)O (configuration not stated)
T/C (dose: 50.0 mg/kg/injection, schedule: Q01DX009 (ip), vehicle: Klucel (hydroxypropylcellulose) (HPC)): 104 % of control and 107 % of control
T/C (dose: 100.0 mg/kg/injection, schedule: Q01DX009 (ip), vehicle: Klucel (hydroxypropylcellulose) (HPC)): 107 % of control
T/C (dose: 200.0 mg/kg/injection, schedule: Q01DX009 (ip), vehicle: Klucel (hydroxypropylcellulose) (HPC)): 101 % of control and 94 % of control

O=S(=O)(O)CC(O)CN1CCN(CCO)CC1 (configuration not stated)
T/C (dose: 60.0 mg/kg/injection, schedule: Q01DX005 (ip), vehicle: saline): 100 % of control
T/C (dose: 120.0 mg/kg/injection, schedule: Q01DX005 (ip), vehicle: saline): 100 % of control
T/C (dose: 240.0 mg/kg/injection, schedule: Q01DX005 (ip), vehicle: saline): 98 % of control

CC(=O)c1ccc2c(c1)N(CCCN1CCN(CCO)CC1)c1ccccc1S2
T/C (dose: 1.56 mg/kg/injection, schedule: Q01DX009 (ip), vehicle: saline): 116 % of control
T/C (dose: 3.12 mg/kg/injection, schedule: Q01DX009 (ip), vehicle: saline): 103 % of control
T/C (dose: 6.25 mg/kg/injection, schedule: Q01DX009 (ip), vehicle: saline): 107 % of control
T/C (dose: 6.25 mg/kg/injection, schedule: Q04DX003 (ip), vehicle: saline): 91 % of control
T/C (dose: 12.5 mg/kg/injection, schedule: Q01DX009 (ip), vehicle: saline): 108 % of control
T/C (dose: 12.5 mg/kg/injection, schedule: Q04DX003 (ip), vehicle: saline): 103 % of control
T/C (dose: 25.0 mg/kg/injection, schedule: Q01DX009 (ip), vehicle: saline): 106 % of control
T/C (dose: 25.0 mg/kg/injection, schedule: Q04DX003 (ip), vehicle: saline): 107 % of control
T/C [4]: 109 % of control
T/C (dose: 50.0 mg/kg/injection, schedule: Q04DX003 (ip), vehicle: saline): 119 % of control

Nc1ncnc2nc[nH]c12
T/C (dose: 16.0 mg/kg/injection, schedule: Q01DX009 (ip), vehicle: Klucel (hydroxypropylcellulose) (HPC)): 100 % of control
T/C (dose: 32.0 mg/kg/injection, schedule: Q01DX009 (ip), vehicle: Klucel (hydroxypropylcellulose) (HPC)): 103 % of control and 108 % of control and 109 % of control
T/C (dose: 32.0 mg/kg/injection, schedule: Q01DX009 (ip), vehicle: saline with Tween-80): 106 % of control and 118 % of control
T/C [1]: 99 % of control
T/C (dose: 64.0 mg/kg/injection, schedule: Q01DX009 (ip), vehicle: Klucel (hydroxypropylcellulose) (HPC)): 106 % of control
T/C (dose: 64.0 mg/kg/injection, schedule: Q01DX009 (ip), vehicle: saline with Tween-80): 111 % of control and 97 % of control
T/C [2]: 114 % of control
T/C (dose: 128.0 mg/kg/injection, schedule: Q01DX009 (ip), vehicle: Klucel (hydroxypropylcellulose) (HPC)): 110 % of control
T/C (dose: 128.0 mg/kg/injection, schedule: Q01DX009 (ip), vehicle: saline with Tween-80): 100 % of control and 108 % of control
T/C [3]: 110 % of control
T/C (dose: 256.0 mg/kg/injection, schedule: Q01DX009 (ip), vehicle: Klucel (hydroxypropylcellulose) (HPC)): 88 % of control
T/C (dose: 256.0 mg/kg/injection, schedule: Q01DX009 (ip), vehicle: saline with Tween-80): 118 % of control

COCCOC(=O)CCn1nc(-c2ccccc2)c(-c2ccccc2)c(C#N)c1=O
T/C (dose: 100.0 mg/kg/injection, schedule: Q04DX002 (ip), vehicle: saline with Tween-80): 104 % of control
T/C (dose: 200.0 mg/kg/injection, schedule: Q04DX002 (ip), vehicle: saline with Tween-80): 106 % of control
T/C (dose: 400.0 mg/kg/injection, schedule: Q04DX002 (ip), vehicle: saline with Tween-80): 100 % of control

COc1cc2c(c(OC)c1OC)-c1c(cc3c(c1OC)OCO3)CC(C)C(C)(O)C2OC(=O)c1ccccc1 (configuration not stated)
T/C (dose: 11.25 mg/kg/injection, schedule: Q01DX009 (ip), vehicle: saline + alcohol): 104 % of control
T/C (dose: 22.5 mg/kg/injection, schedule: Q01DX009 (ip), vehicle: saline + alcohol): 104 % of control
T/C (dose: 45.0 mg/kg/injection, schedule: Q01DX009 (ip), vehicle: saline + alcohol): 95 % of control
T/C (dose: 90.0 mg/kg/injection, schedule: Q01DX009 (ip), vehicle: saline + alcohol): 97 % of control

COC(=O)[C@@H]1c2cc3c(c(O)c2[C@@H](OC2OC(C)C(OC)C(C)(OC)C2OC)C[C@]1(C)O)C(=O)c1c(O)cc2c(c1C3=O)O[C@H]1O[C@]2(C)[C@H](O)[C@@H](N(C)C)[C@@H]1O (some centres not stated)
T/C (dose: 0.12 mg/kg/injection, schedule: Q01DX009 (ip), vehicle: saline): 120 % of control
T/C (dose: 0.25 mg/kg/injection, schedule: Q01DX009 (ip), vehicle: other): 122 % of control
T/C (dose: 0.25 mg/kg/injection, schedule: Q01DX010 (ip), vehicle: saline): 110 % of control
T/C (dose: 0.25 mg/kg/injection, schedule: Q04DX003 (ip), vehicle: other): 116 % of control
T/C (dose: 0.25 mg/kg/injection, schedule: Q04DX003 (ip), vehicle: saline): 117 % of control
T/C (dose: 0.43 mg/kg/injection, schedule: Q04DX003 (ip), vehicle: water): 112 % of control
T/C (dose: 0.5 mg/kg/injection, schedule: Q01DX009 (ip), vehicle: other): 118 % of control
T/C (dose: 0.5 mg/kg/injection, schedule: Q01DX010 (ip), vehicle: saline): 105 % of control
T/C (dose: 0.5 mg/kg/injection, schedule: Q04DX003 (ip), vehicle: other): 109 % of control
T/C (dose: 0.52 mg/kg/injection, schedule: Q04DX003 (ip), vehicle: clinical formulation): 119 % of control
T/C (dose: 0.72 mg/kg/injection, schedule: Q04DX003 (ip), vehicle: water): 115 % of control
T/C (dose: 0.86 mg/kg/injection, schedule: Q04DX003 (ip), vehicle: clinical formulation): 121 % of control
T/C (dose: 1.0 mg/kg/injection, schedule: Q01DX009 (ip), vehicle: other): 91 % of control
T/C (dose: 1.0 mg/kg/injection, schedule: Q01DX009 (ip), vehicle: saline + alcohol): 86 % of control
T/C (dose: 1.0 mg/kg/injection, schedule: Q01DX009 (ip), vehicle: saline): 150 % of control
T/C (dose: 1.0 mg/kg/injection, schedule: Q01DX010 (ip), vehicle: saline): 100 % of control
T/C (dose: 1.44 mg/kg/injection, schedule: Q04DX003 (ip), vehicle: clinical formulation): 114 % of control
T/C (dose: 2.4 mg/kg/injection, schedule: Q04DX003 (ip), vehicle: clinical formulation): 107 % of control
T/C (dose: 3.33 mg/kg/injection, schedule: Q04DX003 (ip), vehicle: water): 120 % of control
T/C (dose: 125.0 micrograms/kg/injection, schedule: Q01DX009 (ip), vehicle: other): 111 % of control
T/C (dose: 375.0 micrograms/kg/injection, schedule: Q04DX003 (ip), vehicle: saline): 121 % of control
T/C (dose: 500.0 micrograms/kg/injection, schedule: Q04DX003 (ip), vehicle: saline): 118 % of control
T/C (dose: 1000.0 micrograms/kg/injection, schedule: Q01DX009 (ip), vehicle: saline): 114 % of control
T/C (dose: 1500.0 micrograms/kg/injection, schedule: Q01DX009 (ip), vehicle: saline): 92 % of control
T/C (dose: 3000.0 micrograms/kg/injection, schedule: Q04DX003 (ip), vehicle: saline): 91 % of control
